Source: article PMC6983066, “Real-Time Optical Detection of Isoleucine in Living Cells through a Genetically-Encoded Nanosensor” (Sensors (Basel, Switzerland), 2019)

Experiments:
[1] = system: T1, GEII nanosensor (ECFP-LivJ-Venus); test: Specificity analysis of purified GEII nanosensor with amino acids and metal ions (Venus/ECFP FRET ratio, microplate); format: biochemical, E. coli; conditions: 1 and 10 mM amino acid, purified sensor
T1 construct: His-tag (from pRSET-B); made in house; host or cells: E. coli BL21 (DE3)
Method: The FRET ratio analysis was performed in 96-well microplate reader using the excitation filter/slits (430/20 nm) and emission filters/slits for ECFP (485/20 nm), and Venus (535/25 nm) respectively. Furthermore, the sensitivity of sensor protein was tested against 10 mM of different metals ions present in the human body i.e., NaCl, CaCl2, MgCl2, and KCl.

[2] = molecular target: LivJ; conditions: LivJ binding protein; no reference given; cited from earlier work
[3] = system: E. coli BL21(DE3) cells; test: Monitoring of isoleucine in living bacterial cells expressing GEII; format: cell-based; conditions: 10 mM amino acid, 45 min
Method: For monitoring of isoleucine in bacterial cells, the E. coli BL21(DE3) containing pRSET-B-GEII were incubated for 48 h at 21 °C. For appropriate protein folding of nanosensor protein, the culture was stored in 4 °C overnight. The bacterial cells were centrifuged and the resultant pellet of the bacterial cells was resuspended in MOPS buffer (20 mM). Twenty microliter 10 mM isoleucine was added to 180 µL resuspended bacterial cell in the wells of microplate. The ratio of fluorescence emission intensities of Venus/ECFP was recorded for 45 min.

SMILES	change in FRET ratio of GEII with amino acid [1]	Kd [2]	FRET ratio change of GEII in E. coli cells [3]
N[C@@H](CS)C(=O)O [Cysteine]	minimal		
CC(C)C[C@H](N)C(=O)O [Leucine]	only mildly	2.3 µM	
N[C@@H](CCC(=O)O)C(=O)O [Glutamate]	minimal		
CC(C)[C@H](N)C(=O)O [Valine]	minimal	4 µM	
NC(=O)CC[C@H](N)C(=O)O [glutamine]	minimal		
CC[C@H](C)[C@H](N)C(=O)O [Isoleucine]	maximum	0.9 µM	maximum FRET ratio change
NCCCC[C@H](N)C(=O)O [lysine]	minimal		
NC(=O)C[C@H](N)C(=O)O [asparagine]	minimal		
CSCC[C@H](N)C(=O)O [Methionine]	minimal		
N[C@@H](CO)C(=O)O [Serine]	minimal		
NCC(=O)O [glycine]	minimal		
C[C@H](N)C(=O)O [Alanine]	minimal		
N[C@@H](Cc1c[nH]cn1)C(=O)O [histidine]	minimal		
N[C@@H](CC(=O)O)C(=O)O [aspartic acid]	minimal		
N=C(N)NCCC[C@H](N)C(=O)O [arginine]	minimal		
